Results from US10703800B2, “Cell culture medium” (La Jolla Biologics, Inc., priority 2016, dated 2020).

Tests used:
[1] = test system: CHO.DXB11 cells; experiment: Media supplementation with fatty acids, methyl esters, sterols, glycerides and isoprenoids, mAb1 production; type: cell-based, Chinese hamster; conditions: supplement in ethanol fed daily per Table 5 (2.7-10.7 μM, ethanol 0.05% v/v) vs control
Protocol: (§1) Monoclonal antibodies 1 (mAb1) and 4 (mAb4) were produced using two separate cell lines according to methods described in the previous Examples. Titer, percent of high molecular weight and low molecular weight species, acidic and basic charge variants, and glycosylation species profiles were assessed as in the previous Examples.
(§2) Fatty acids were dissolved in ethanol and fed daily according to Table 5 using two different process strategies for mAb1 and mAb4. The mAb1 process strategy was maintained at 37° C. then shifted to 31° C. during late exponential phase, with the pH being maintained at 7.0±0.2 throughout the culture. The mAb4 process strategy was maintained at 36.5° C. then shifted to 33° C. during production phase, with the pH being shifted from 7.0±0.1 to 6.8±0.1 in the late exponential phase. Both process strategies were maintained at 30% air saturation

[2] = test system: cell line producing mAb4; experiment: Media supplementation with fatty acids, methyl esters, sterols, glycerides and isoprenoids, mAb4 production; type: cell-based; conditions: supplement in ethanol fed daily per Table 5 (5.0-20.0 μM, ethanol 0.09% v/v) vs control
Protocol: as §1, §2

[3] = test system: CHO.DXB11 derived clone; experiment: Sodium chloride supplementation, microscale bioreactors, mAb3; type: cell-based, Chinese hamster; conditions: sodium chloride 4.59 mM and 9.18 mM fed daily, 12 day fed-batch
Protocol: Monoclonal antibody 3 (mAb3) is a monoclonal antibody produced using recombinant DNA technology. The expression vector is fully synthetic with both heavy- and light-chain gene sequences regulated by strong constitutive promoters. Gene sequences were confirmed by DNA sequencing. The expression vector was linearized by restriction enzymes and stably transfected into CHO.DXB11 cells by electroporation. Gene amplification steps were performed with increasing concentrations of methotrexate. Single cell cloning was performed after gene amplification. Select single cell clones were expanded and cryopreserved. The cell line used was a CHO.DXB11 derived clone.
Sodium chloride was fed daily at 4.59 mM and 9.18 mM using two different process strategies. Process strategy 1 was maintained at 36.5° C. then shifted to 31° C. during production phase. Process strategy 2 was maintained at 36.5° C. then shifted to 31° C. during production phase then re-shifted back to 36.5° C. during late production phase. Both process strategies were maintained at 30% air saturation and a pH of 7.0±0.2. Other glycan species and HMW % and LMW % are not listed because no significant change in levels were observed from sodium chloride supplementation.

[4] = test system: CHO.DXB11 cells; experiment: Oleic acid in bench-scale bioreactors, baseline without fatty acids or ethanol, mAb 1; type: cell-based, Chinese hamster; conditions: oleic acid 40 μM + ethanol 0.057% v/v fed daily vs baseline without both, 14 day fed-batch
From the text: Feed media was supplemented with fatty acids to determine if fatty acids altered mAb properties. Feed media was fed daily in a fed-batch process using bench-scale (2 L working volume) bioreactors.

[5] = test system: CHO.DXB11 cells; experiment: Oleic acid in bench-scale bioreactors, baseline with ethanol, mAb 1; type: cell-based, Chinese hamster; conditions: oleic acid 40 μM fed daily vs baseline w/ethanol, 14 day fed-batch
From the text: Ethanol supplemented media was further supplemented with fatty acids to determine if fatty acids altered mAb properties. Feed media was fed daily in a fed-batch process using bench-scale (2 L working volume) bioreactors. […] Media used for baseline measurements contains ethanol but no fatty acids.

[6] = process strategies 1 and 2, mAb3

Cc1ccc(C(C)C)c(O)c1 [thymol]
Effect on G0 glycan species [1]: Decreased
Effect on acidic charge variants [1]: decreased
Effect on low molecular weight species [1]: decreased
Effect on titer [1]: increased
Effect on LMW species [2]: decreased
Effect on acidic charge variants [2]: decreased
Effect on relative percentage of HMW species [2]: decreased
Effect on relative percentage of Man5 glycan species [2]: decreased
Effect on relative percentage of basic charge variants [2]: decreased

CCCCCCCCCCCCCCCC(=O)O [palmitic acid]
Effect on G0 glycan species [1]: Decreased
Effect on acidic charge variants [1]: decreased
Effect on basic charge variants [1]: decreased
Effect on low molecular weight species [1]: decreased
Effect on LMW species [2]: decreased
Effect on acidic charge variants [2]: decreased

CCCCCCCC(=O)OCC(O)CO (racemic) [1-octanoyl-rac-glycerol]
Effect on G0F glycan species [1]: decreased
Effect on acidic charge variants [1]: decreased
Effect on low molecular weight species [1]: decreased
Effect on titer [1]: increased
Effect on acidic charge variants [2]: decreased
Effect on relative percentage of G0F glycan species [2]: decreased
Effect on relative percentage of G0 glycan species [2]: decreased
Effect on relative percentage of HMW species [2]: decreased
Effect on relative percentage of Man5 glycan species [2]: decreased
Effect on relative percentage of basic charge variants [2]: decreased

CCCCCCCC(=O)OC [methyl octanoate]
Effect on G0F glycan species [1]: decreased
Effect on G0 glycan species [1]: Decreased
Effect on acidic charge variants [1]: decreased
Effect on relative percentage of G0 glycan species [2]: decreased
Effect on relative percentage of HMW species [2]: decreased
Effect on relative percentage of Man5 glycan species [2]: decreased
Effect on relative percentage of basic charge variants [2]: decreased

CCCCC/C=C\C/C=C\CCCCCCCC(=O)O [linoleic acid]
Effect on acidic charge variants [1]: decreased
Effect on low molecular weight species [1]: decreased
Effect on titer [1]: increased
Effect on LMW species [2]: decreased
Effect on acidic charge variants [2]: decreased
Effect on relative percentage of G0 glycan species [2]: decreased
Effect on relative percentage of Man5 glycan species [2]: decreased

CC(C)CCC[C@@H](C)[C@H]1CC[C@H]2[C@@H]3CC=C4C[C@@H](O)CC[C@]4(C)[C@H]3CC[C@]12C [cholesterol]
Effect on G0 glycan species [1]: Decreased
Effect on basic charge variants [1]: decreased
Effect on relative percentage of G0 glycan species [2]: decreased
Effect on relative percentage of Man5 glycan species [2]: decreased
Effect on relative percentage of basic charge variants [2]: decreased

cholesteryl acetate
Effect on G0F glycan species [1]: decreased
Effect on G0 glycan species [1]: Decreased
Effect on Man5 glycan species [1]: Decreased
Effect on LMW species [2]: decreased
Effect on acidic charge variants [2]: decreased
Effect on relative percentage of G0 glycan species [2]: decreased
Effect on relative percentage of HMW species [2]: decreased
Effect on relative percentage of Man5 glycan species [2]: decreased
Effect on relative percentage of basic charge variants [2]: decreased

[Cl-].[Na+] [sodium chloride]
Effect on HMW % ([3]; mAb3): did not change
Effect on LMW % ([3]; mAb3): did not change
Effect on G0F glycan species [3, 6]: decreased
Effect on G0 glycan species [3, 6]: increased
Effect on G1F glycan species [3, 6]: increased
Effect on G2F glycan species [3, 6]: increased
Effect on Man5 glycan species [3, 6]: increased
Effect on acidic charge variants [3, 6]: increased
Effect on basic charge variants [3, 6]: increased
Effect on monoclonal antibody titer [3, 6]: decreased
Effect on monoclonal antibody titer ([3]; process strategies 1 and 2, mAb3, listed as Sodium chloride): reduced

CCCCCCCC/C=C\CCCCCCCC(=O)O [oleic acid]
Effect on G0F glycan species [4]: decreased
Effect on G0 glycan species [4]: decreased
Effect on G1F glycan species [4]: increased
Effect on G2F glycan species [4]: increased
Effect on Man5 glycan species [4]: decreased
Effect on acidic charge variants [4]: decreased
Effect on high molecular weight species [4]: decreased
Effect on monoclonal antibody titer [4]: increased
Effect on G0F glycan species [5]: increased
Effect on G0 glycan species [5]: decreased
Effect on G1F glycan species [5]: decreased
Effect on G2F glycan species [5]: decreased
Effect on Man5 glycan species [5]: decreased
Effect on acidic charge variants [5]: decreased
Effect on antibody titer [5]: decreased
Effect on basic charge variants [5]: increased
Effect on high molecular weight species [5]: increased
Effect on low molecular weight species [5]: increased
Effect on G0F glycan species [1]: decreased
Effect on G0 glycan species [1]: Decreased
Effect on acidic charge variants [1]: decreased
Effect on acidic charge variants [2]: decreased
Effect on relative percentage of G0 glycan species [2]: decreased
Effect on relative percentage of Man5 glycan species [2]: decreased

CCCCCCCCCCCCCC(=O)O [myristic acid]
Effect on G0F glycan species [1]: decreased
Effect on G0 glycan species [1]: Decreased
Effect on acidic charge variants [1]: decreased
Effect on acidic charge variants [2]: decreased
Effect on relative percentage of G0 glycan species [2]: decreased
Effect on relative percentage of HMW species [2]: decreased
Effect on relative percentage of Man5 glycan species [2]: decreased
Effect on relative percentage of basic charge variants [2]: decreased

CCCCCCCCCCCCCCCCCC(=O)O [stearic acid]
Effect on G0 glycan species [1]: Decreased
Effect on basic charge variants [1]: decreased
Effect on low molecular weight species [1]: decreased
Effect on acidic charge variants [2]: decreased
